Peptide text beside a SMILES is read from it.
Test system: dendritic cells
Assay: Oligolysine induced toxicity to dendritic cells
Assay type: cell-based
Settings: 1.5 μg/mL K20, different time intervals
Method: FIGS. 15A and 15B show oligolysine induced toxicity to dendritic cells. FIG. 15A: Freshly harvested dendritic cells were incubated with 1.5 μg/mL K20 for different time intervals. […] FIG. 15B: Confocal image of dendritic cells incubated with oligolysine (K20) peptide-coated, cy5 labeled DNA nanostructure.

With NCCCC[C@H](NC(=O)[C@H](CCCCN)NC(=O)[C@H](CCCCN)NC(=O)[C@H](CCCCN)NC(=O)[C@H](CCCCN)NC(=O)[C@H](CCCCN)NC(=O)[C@H](CCCCN)NC(=O)[C@H](CCCCN)NC(=O)[C@H](CCCCN)NC(=O)[C@H](CCCCN)NC(=O)[C@H](CCCCN)NC(=O)[C@H](CCCCN)NC(=O)[C@H](CCCCN)NC(=O)[C@H](CCCCN)NC(=O)[C@H](CCCCN)NC(=O)[C@H](CCCCN)NC(=O)[C@H](CCCCN)NC(=O)[C@H](CCCCN)NC(=O)[C@H](CCCCN)NC(=O)[C@@H](N)CCCCN)C(=O)O [K20] (H-KKKKKKKKKKKKKKKKKKKK-OH) the “appearance of dendritic cells under a microscope” value was “cells appeared healthy”.

— patent US20160271268A1, “NUCLEIC ACID NANOSTRUCTURES FOR IN VIVO AGENT DELIVERY” (DANA-FARBER CANCER INSTITUTE, INC., priority 2013, published 2016)
